Results published in patent publication US7879876B2, “Sulfonamide derivatives and use thereof for the modulation of metalloproteinases” (Merck Serono SA, priority 2005, dated 2011).
pIC50: −log10 of the molar value. Where a name gives a salt, the structure may show the parent alone.

Tests used:
Format in all cases: biochemical
MMP-14 = MMP-14 (Homo sapiens, UniProt P50281); experiment: MMP-14 enzyme inhibition assay (coumarin-labelled peptide substrate); details: read-out: percentage inhibition MMP14
Description: (§1) Compounds of the invention were tested to assess their activities as inhibitors of MMP-1, MMP-2, MMP-9, MMP-14, MMP-12 and TACE. MMP-9 Assay Protocol
(§2) Compounds of the invention were tested for inhibitory activity against 92 kDa gelatinase (MMP-9) in an assay using a coumarin-labeled peptide substrate, (7-methoxycoumarin-4-yl)acetyl-Pro-Leu-Gly-Leu-(3-[2,4-dinitrophenyl]-L-2,3diaminopropionyl)-Ala-Arg-NH2 (McaPLGLDpaAR) (Knight et al, FEBS Lett. 1992; 263-266).
(§3) Stock solutions were made up as follows: Assay Butter: 100 mM Tris-HCl pH 7.6 containing 100 mM NaCl, 10 mM CaCl2, and 0.05% Brij 35.
(§4) Substrate: 0.4 mM McaPLGLDpaAR (from Bachem) (0.437 mg/ml) stock solution in 100% DMSO (stored at −20° C.). Dilute to 8 μM in assay butter.
(§5) Enzyme: Recombinant human 92 kDa gelatinase (MMP-9; APMA (4-aminophenyl mercuric acetate)-activated if necessary) appropriately diluted in assay butter.
(§6) Test Compounds were prepared initially as 10 mM compound solution in 100% DMSO, diluted to 1 mM in 100% DMSO, then serially diluted 3-fold in 100% DMSO across columns 1-10 of a 96-well microtitre plate Assay concentration range, 100 μM (column 1) to 5.1 nM (column 10).
(§7) The assay was performed in a total volume of 100 μL per well in 96-well microtitre plates. Activated enzyme (20 μL) was added to the wells followed by 20 μL of assay butter. Appropriate concentrations of test compounds dissolved in 10 μL of DMSO were then added followed by 50 μL of McaPLGLDpaAR (8 μM, prepared by dilution of DMSO stock in assay butter). For each as say ten concentrations of test compound were examined in duplicate. Control wells lack either enzyme or test compound. The reactions were incubated at 37° C. for 2 hours. The fluorescence at 405 nm was measured immediately with an SLT Fluostar fluorometer (SL T Labinstruments GmbH, Grödig, Austria) using 320 nm excitation, without stopping the reaction.
(§8) The effect of the test compound was determined from the dose response curve generated by the 10 duplicate concentrations of inhibitor. The IC50 (the concentration of compound required to give a 50% decrease in enzyme activity) was obtained by fitting data to the equation, Y=a+((b−a)/(1+(c/X)^d)). (Y=inhibition achieved for a particular dose; X=the dose in nM; a=minimum y or zero % inhibition; b=maximum y or 100% inhibition; c=is the IC50; d=is the slope). The result was rounded to one significant figure.
(§9) Compounds of the invention were tested for inhibitory activity against MMP-14 in an assay using a coumarin-labelled peptide substrate, (7-methoxycoumarin-4-yl)acetyl-Pro-Leu-Gly-Leu-(3-[2,4-dinitrophenyl]-L-2,3diaminopropionyl)-Ala-Arg-NH2 (Mca PLGLD paAR) (Knight et al, 1992, above). The protocol for this assay was as described for the MMP-9 assay above.

gelatinase A (MMP-2) = molecular target: T1, gelatinase A (MMP-2) (Homo sapiens, UniProt P08253); experiment: MMP-2 enzyme inhibition assay (coumarin-labelled peptide substrate); details: read-out: IC50 MMP2
T1 sequence (P08253 110-660): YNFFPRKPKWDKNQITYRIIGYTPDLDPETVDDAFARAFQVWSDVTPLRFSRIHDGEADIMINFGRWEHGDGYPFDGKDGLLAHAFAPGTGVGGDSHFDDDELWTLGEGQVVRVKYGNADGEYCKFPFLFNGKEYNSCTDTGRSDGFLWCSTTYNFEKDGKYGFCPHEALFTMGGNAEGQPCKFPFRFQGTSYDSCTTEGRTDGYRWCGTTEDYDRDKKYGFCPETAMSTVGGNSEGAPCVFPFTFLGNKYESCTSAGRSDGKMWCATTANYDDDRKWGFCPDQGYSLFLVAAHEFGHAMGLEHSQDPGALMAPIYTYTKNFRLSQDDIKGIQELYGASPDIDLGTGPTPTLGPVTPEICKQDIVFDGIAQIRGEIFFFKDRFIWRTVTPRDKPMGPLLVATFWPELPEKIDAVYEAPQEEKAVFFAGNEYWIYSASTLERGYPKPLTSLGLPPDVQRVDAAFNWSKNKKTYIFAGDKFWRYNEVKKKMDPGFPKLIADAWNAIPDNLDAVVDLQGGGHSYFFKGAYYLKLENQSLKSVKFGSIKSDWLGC
Description: Compounds of the invention were tested to assess their activities as inhibitors of MMP-1, MMP-2, MMP-9, MMP-14, MMP-12 and TACE. MMP-9 Assay Protocol […]
as §3
Substrate: 0.4 mM McaPLGLDpaAR (from Bachem) (0.437 mg/ml) stock solution in 100% DMSO (stored at −20° C.). Dilute to 8 μM in assay butter. […]
as §6, §7, §8
as §9, with “gelatinase A (MMP-2)” for “MMP-14”, “PLGLDpaAR)” for “PLGLD paAR)”

metalloelastase (MMP-12) = metalloelastase (MMP-12) (Homo sapiens, UniProt P39900); experiment: MMP-12 enzyme inhibition assay (coumarin-labelled peptide substrate); details: read-out: IC50 MMP12
Chain of metalloelastase (MMP-12) (P39900 106-470): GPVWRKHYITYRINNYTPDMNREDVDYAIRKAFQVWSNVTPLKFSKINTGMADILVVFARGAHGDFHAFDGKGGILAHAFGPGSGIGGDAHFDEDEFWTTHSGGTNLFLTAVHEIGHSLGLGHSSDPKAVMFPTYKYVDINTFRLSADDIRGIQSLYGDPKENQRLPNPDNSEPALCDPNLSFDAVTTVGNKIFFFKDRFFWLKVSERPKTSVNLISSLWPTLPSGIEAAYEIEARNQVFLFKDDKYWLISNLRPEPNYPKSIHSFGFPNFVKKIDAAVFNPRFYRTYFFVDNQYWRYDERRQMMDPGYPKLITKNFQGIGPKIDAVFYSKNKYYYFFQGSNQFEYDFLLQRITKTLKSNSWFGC
Description: as §1, §2, §3, §4, §5, §6, §7, §8
Compounds of the invention were tested for inhibitory activity against metalloelastase (MMP-12) in an assay using a coumarin-labelled peptide substrate, (7-methoxycoumarin-4-yl)acetyl-Pro-Leu-Gly-Leu-(3-[2,4-dinitrophenyl]-L-2,3-diaminopropionyl)-Ala-Arg-NH2 (McaPLGLDpaAR) (Knight et al, 1992, above). The protocol for this assay was as described for the MMP-9 assay above.

[1] = molecular target: 92 kDa gelatinase (MMP-9) (Homo sapiens, UniProt P14780); experiment: MMP-9 enzyme inhibition assay (coumarin-labeled peptide substrate); details: read-out: IC50 MMP9
Chain of 92 kDa gelatinase (MMP-9) (P14780 107-707 limits assumed): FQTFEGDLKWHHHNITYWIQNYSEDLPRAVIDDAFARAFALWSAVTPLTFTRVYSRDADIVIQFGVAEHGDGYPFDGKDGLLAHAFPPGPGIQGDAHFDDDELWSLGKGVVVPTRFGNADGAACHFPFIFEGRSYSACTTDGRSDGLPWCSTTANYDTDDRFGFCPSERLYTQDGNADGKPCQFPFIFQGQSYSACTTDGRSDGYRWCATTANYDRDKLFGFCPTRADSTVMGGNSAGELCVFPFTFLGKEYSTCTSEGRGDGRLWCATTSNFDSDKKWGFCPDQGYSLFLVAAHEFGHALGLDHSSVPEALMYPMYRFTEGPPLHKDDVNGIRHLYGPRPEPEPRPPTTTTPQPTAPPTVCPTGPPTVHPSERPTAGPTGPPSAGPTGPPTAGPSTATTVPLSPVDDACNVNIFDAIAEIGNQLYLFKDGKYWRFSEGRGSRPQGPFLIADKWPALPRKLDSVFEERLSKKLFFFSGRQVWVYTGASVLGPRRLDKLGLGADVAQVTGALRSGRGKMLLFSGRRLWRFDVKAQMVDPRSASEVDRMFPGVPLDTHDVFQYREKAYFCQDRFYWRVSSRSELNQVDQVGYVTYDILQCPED
Description: as §1, §2, §3, §4, §5, §6, §7, §8

MMP13 = MMP13 (Homo sapiens, UniProt P45452); experiment: MMP13 inhibition (Table 1); details: read-out: percentage inhibition MMP13
collagenase (MMP-1) = molecular target: T2, collagenase (MMP-1) (Homo sapiens, UniProt P03956); experiment: MMP-1 enzyme inhibition assay (coumarin-labelled peptide substrate); details: @ 5 μM; read-out: percentage inhibition MMP1
T2 sequence (P03956 100-469): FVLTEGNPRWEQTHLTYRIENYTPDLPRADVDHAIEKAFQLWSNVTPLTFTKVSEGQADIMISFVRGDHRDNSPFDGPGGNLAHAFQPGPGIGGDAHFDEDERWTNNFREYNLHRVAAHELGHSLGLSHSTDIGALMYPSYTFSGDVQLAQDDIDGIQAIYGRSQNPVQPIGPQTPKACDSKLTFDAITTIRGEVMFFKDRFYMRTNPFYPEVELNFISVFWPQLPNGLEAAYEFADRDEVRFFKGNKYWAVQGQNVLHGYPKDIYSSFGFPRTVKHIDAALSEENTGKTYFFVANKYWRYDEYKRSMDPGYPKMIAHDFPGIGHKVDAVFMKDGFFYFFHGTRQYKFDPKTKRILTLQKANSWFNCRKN
Description: as §1, §2, §3, §4, §5, §6, §7, §8
as §9, with “collagenase (MMP-1)” for “MMP-14”, “PLGLDpaAR)” for “PLGLD paAR)”

Row | SMILES | inhibition at 0.1 µM (MMP-14; @ 0.1 μM) | pIC50 (gelatinase A (MMP-2)) | pIC50 (metalloelastase (MMP-12)) | inhibition at 5 µM (MMP-14) | pIC50 [1] | inhibition at 0.1 µM (MMP13) | inhibition at 5 µM (MMP13; @ 5 μM) | inhibition at 5 µM (collagenase (MMP-1))
1 | CC(C)(C)OC(=O)N1CCC[C@@H]1[C@H](CS(=O)(=O)N1CCc2cc(Cl)c(Cl)cc2C1)N(O)C=O (racemic) [Example 46, tert-butyl (2RS)-2-{(1RS)-2-[(6,7-dichloro-3,4-dihydro-isoquinolin-2(1H)-yl)sulfonyl]-1-[formyl(hydroxy)amino]ethyl}pyrrolidine-1-carboxylate] | 19% | ≤ 5.30 | 6.34 |  |  |  |  | 
2 | CSCCC(CS(=O)(=O)N1CCc2ccc(C(C)(C)C)cc2C1)N(O)C=O (centres unmarked) [Example 54, N-[1-{[(7-tert-butyl-3,4-dihydroisoquinolin-2(1H)-yl)-sulfonyl]methyl}-3-(methylthio)propyl]-N-hydroxyformamide] |  | < 5.30 | 6.63 |  |  |  |  | 
3 | O=CN(O)C(CS(=O)(=O)N1CCc2ccccc2C1)c1cccs1 (centres unmarked) [Example 5, N-[2-(3,4-dihydroisoquinolin-2(1H)-ylsulfonyl)-1-(2-thienyl)ethyl]-N-hydroxyformamide] |  | 6.12 | 7.80 | 70% | < 5.30 | 16% | 97% | 32%
4 | CC(C)CC(CS(=O)(=O)N1CCc2ccc(OC(C)C)cc2C1)N(O)C=O (centres unmarked) [Example 51, N-hydroxy-N-(1-{[(7-isopropoxy-3,4-dihydroisoquinolin-2(1H)-yl)sulfonyl]methyl}-3-methylbutyl)formamide] |  | 5.88 | 6.96 |  |  |  |  | 
5 | CC(C)Oc1ccc2c(c1)CN(S(=O)(=O)CC(C1CCCC1)N(O)C=O)CC2 (centres unmarked) [Example 78, N-{1-cyclopentyl-2-[(7-isopropoxy-3,4-dihydroisoquinolin-2(1H)-yl)sulfonyl]ethyl}-N-hydroxyformamide] |  | < 5.30 | 6.49 |  |  |  |  | 
6 | CCOC(=O)C1CC1C(CS(=O)(=O)N1CCc2cc(OC)c(OC)cc2C1)N(O)C=O (centres unmarked) [Example 67, ethyl 2-[2-[(6,7-dimethoxy-3,4-dihydroisoquinolin-2(1H)-yl)sulfonyl]-1-[formyl(hydroxy)amino]ethyl]cyclopropanecarboxylate] |  | < 5.30 | 6.95 |  |  |  |  | 
7 | CCC(CC)C(CS(=O)(=O)N1CCc2cc(OC)c(OC)cc2C1)N(O)C=O (centres unmarked) [Example 17, N-(1-{[(6,7-dimethoxy-3,4-dihydroisoquinolin-2(1H)-yl)sulfonyl]methyl}-2-ethylbutyl)-N-hydroxyformamide] |  | < 5.30 | 6.99 | 0% | < 5.30 |  |  | 0%
8 | COc1cc2c(cc1OC)CN(S(=O)(=O)CC(C1CC1C(=O)O)N(O)C=O)CC2 (centres unmarked) [Example 71, 2-[2-[(6,7-dimethoxy-3,4-dihydroisoquinolin-2(1H)-yl)-sulfonyl]-1-[formyl(hydroxy)amino]ethyl]cyclopropanecarboxylic acid] |  | < 5.30 | 6.23 |  |  |  |  | 
9 | CC(C)(C)c1ccc2c(c1)CN(S(=O)(=O)CC(C1CCOCC1)N(O)C=O)CC2 (centres unmarked) [Example 66, N-[2-[(7-tert-butyl-3,4-dihydroisoquinolin-2(1H)-yl)sulfonyl]-1-(tetrahydro-2H-pyran-4-yl)ethyl]-N-hydroxyformamide] |  | < 5.30 | 6.68 |  |  |  |  | 
10 | COc1cc2c(cc1OC)CN(S(=O)(=O)CC(C1CCCC1)N(O)C=O)CC2 (centres unmarked) [Example 15, N-{1-cyclopentyl-2-[(6,7-dimethoxy-3,4-dihydroisoquinolin-2(1H)-yl)sulfonyl]ethyl}-N-hydroxyformamide] |  | < 5.30 | 6.73 | 0% | < 5.30 |  |  | 0%
11 | COc1cc2c(cc1OC)CN(S(=O)(=O)CC(C1CC1)N(O)C=O)CC2 (centres unmarked) [Example 84, N-{1-cyclopropyl-2-[(6,7-dimethoxy-3,4-dihydro-isoquinolin-2(1H)-yl)sulfonyl]ethyl}-N-hydroxyformamide] |  | < 5.30 | 6.44 |  |  |  |  | 
12 | O=CN(O)C(CS(=O)(=O)N1CCc2ccccc2C1)c1ccsc1 (centres unmarked) [Example 7, N-[2-(3,4-dihydroisoquinolin-2(1H)-ylsulfonyl)-1-(3-thienyl)ethyl]-N-hydroxyformamide] |  | 6.11 | 7.74 | 71% | < 5.30 |  |  | 31%
13 | O=CN(O)C(CS(=O)(=O)N1CCc2ccccc2C1)c1cccnc1 (centres unmarked) [Example 11, N-[2-(3,4-dihydroisoquinolin-2(1H)-ylsulfonyl)-1-pyridin-3-ylethyl]-N-hydroxyformamide, hydrochloride salt] |  |  | 7.59 |  | < 5.30 | 15% |  | 
14 | COc1cc2c(cc1OC)CN(S(=O)(=O)CC(N(O)C=O)C(C)(C)C)CC2 (centres unmarked) [Example 20, N-(1-{[(6,7-dimethoxy-3,4-dihydroisoquinolin-2(1H)-yl)sulfonyl]methyl}-2,2-dimethylpropyl)-N-hydroxyformamide] |  | < 5.30 | 6.55 | 0% | < 5.30 |  |  | 0%
